Counter-ions that a name gives are not always drawn.
Experiments:
[1] = target: T1, α4β1 integrin (Jurkat T-cell adhesion to IL-1 stimulated endothelial cell monolayers) (Homo sapiens, UniProt P05556+P13612); experiment: Jurkat-endothelial cell adhesion assay (Jurkat EC); format: cell-based; conditions: Jurkat cells on IL-1 stimulated human umbilical vein endothelial cells; read-out: JK/EC (Jurkat EC Assay IC50 value range)
T1 construct: a T-cell line, Jurkat, known to express the α4β1 integrin; host or cells: Jurkat T-cell line
Outline: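 Adhesion was expressed as percent of compound-free fluorescence after 20 min at 37° C (following 5 min settling on ice) of BCECF-loaded Jurkat T cells on washed HUVEC monolayers. The endothelium, passage 6 or lower, had received 0.1 ng/ml recombinant IL-1 for 4 hr at 37° C; compound was premixed with the T cells, typically at 100, 20, 5 and 1.25 μM.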

[2] = target: T2, α4β1 integrin (Jurkat cell adhesion to immobilized CS-1 derived peptide CLHPGEILDVPST) (Homo sapiens, UniProt P05556+P13612); experiment: Jurkat-CS-1 assay; format: cell-based; conditions: Jurkat cells on CS-1 peptide coated plates; read-out: JK/CS-1 (Jurkat CS-1 Assay IC50 value range)
T2 construct: 100 μl of Jurkat cells (2.5×10^6 cells/ml) in DMEM plus BSA; host or cells: Jurkat T-cell line
Outline: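 CS-1 peptide was SPDP-crosslinked onto HSA-coated plates and blocked with BSA. Jurkat cells (2.5×10^6 cells/ml) in DMEM/BSA were mixed with compound, generally at 100, 20, 5 and 1.25 μM, and allowed to adhere for 1 hr at 37° C. Bound cells were fixed, stained with toluidine blue and quantified by OD590.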

T1 sequence (P13612 34-1032): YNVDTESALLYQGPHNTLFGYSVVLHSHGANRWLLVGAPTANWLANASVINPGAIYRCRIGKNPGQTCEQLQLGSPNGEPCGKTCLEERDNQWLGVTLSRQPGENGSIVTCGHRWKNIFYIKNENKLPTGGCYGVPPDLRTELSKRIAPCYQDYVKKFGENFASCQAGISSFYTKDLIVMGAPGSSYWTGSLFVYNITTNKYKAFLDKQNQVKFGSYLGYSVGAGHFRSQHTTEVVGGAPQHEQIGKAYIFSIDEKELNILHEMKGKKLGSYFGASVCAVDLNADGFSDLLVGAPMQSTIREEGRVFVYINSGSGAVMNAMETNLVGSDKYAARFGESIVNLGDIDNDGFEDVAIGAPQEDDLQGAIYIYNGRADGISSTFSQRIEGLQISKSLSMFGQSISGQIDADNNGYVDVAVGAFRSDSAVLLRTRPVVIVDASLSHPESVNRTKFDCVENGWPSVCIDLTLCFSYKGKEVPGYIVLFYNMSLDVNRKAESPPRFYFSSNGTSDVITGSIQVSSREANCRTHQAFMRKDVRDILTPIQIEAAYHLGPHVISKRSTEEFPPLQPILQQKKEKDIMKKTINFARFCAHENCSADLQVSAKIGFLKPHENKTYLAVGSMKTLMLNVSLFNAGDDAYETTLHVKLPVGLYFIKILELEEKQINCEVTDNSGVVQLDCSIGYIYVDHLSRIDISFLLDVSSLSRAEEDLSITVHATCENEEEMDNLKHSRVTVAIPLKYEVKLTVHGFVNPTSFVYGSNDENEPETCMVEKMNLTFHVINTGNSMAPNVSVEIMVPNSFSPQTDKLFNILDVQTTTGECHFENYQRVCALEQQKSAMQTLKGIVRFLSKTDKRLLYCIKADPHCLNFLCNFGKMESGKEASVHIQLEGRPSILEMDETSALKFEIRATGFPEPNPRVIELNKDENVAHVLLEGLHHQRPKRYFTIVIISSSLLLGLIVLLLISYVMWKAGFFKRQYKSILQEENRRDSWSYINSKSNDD
T1 sequence (P05556 21-798): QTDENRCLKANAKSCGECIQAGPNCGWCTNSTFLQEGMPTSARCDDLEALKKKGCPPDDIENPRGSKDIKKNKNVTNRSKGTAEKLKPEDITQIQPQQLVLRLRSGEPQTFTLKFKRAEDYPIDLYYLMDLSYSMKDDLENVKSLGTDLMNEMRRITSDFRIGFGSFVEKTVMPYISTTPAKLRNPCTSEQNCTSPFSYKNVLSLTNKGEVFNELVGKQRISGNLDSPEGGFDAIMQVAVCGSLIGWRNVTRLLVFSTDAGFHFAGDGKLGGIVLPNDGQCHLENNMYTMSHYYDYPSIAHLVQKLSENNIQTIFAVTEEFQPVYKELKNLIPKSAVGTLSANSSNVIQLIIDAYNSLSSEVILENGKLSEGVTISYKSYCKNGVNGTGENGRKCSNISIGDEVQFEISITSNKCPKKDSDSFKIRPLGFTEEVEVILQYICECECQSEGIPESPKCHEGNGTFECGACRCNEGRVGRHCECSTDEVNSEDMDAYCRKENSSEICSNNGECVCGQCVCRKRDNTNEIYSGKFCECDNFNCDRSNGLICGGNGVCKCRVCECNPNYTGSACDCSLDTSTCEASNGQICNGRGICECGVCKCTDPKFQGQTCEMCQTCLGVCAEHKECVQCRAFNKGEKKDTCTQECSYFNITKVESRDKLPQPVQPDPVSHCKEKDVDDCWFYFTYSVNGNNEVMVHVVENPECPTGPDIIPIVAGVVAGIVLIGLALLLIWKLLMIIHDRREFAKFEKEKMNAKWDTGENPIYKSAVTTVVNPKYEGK
T2 sequence (P13612 34-1032): as the sequence (P13612 34-1032) above
T2 sequence (P05556 21-798): as the sequence (P05556 21-798) above

IC50 [1] [nM] | IC50 [2] [nM] | SMILES
≤ 250 | ≤ 50 | CC(=O)N1[C@@H](C(=O)N[C@@H](Cc2ccc(NC(=O)c3c(Cl)cccc3Cl)cc2)C(=O)O)CSC1(C)C [Example 84, N-[[(4S)-3-Acetyl-2,2-dimethyl-4-thiazolidinyl]carbonyl]-4-[(2,6-dichlorobenzoyl)amino]-L-phenylalanine]
≥ 1000 | ≥ 750 | COC(=O)[C@H](Cc1ccc(NC(=O)c2c(Cl)cccc2Cl)cc1)NC(=O)[C@@H]1N(C(C)=O)C(C)(C)SC1(C)C [Example 87, N-[[(4S)-3-Acetyl-2,2,5,5-tetramethyl-4-thiazolidinyl]carbonyl]-4-[(2,6-dichlorobenzoyl)amino]-L-phenylalanine Methyl Ester]
≥ 1000 | ≥ 750 | O=C(NO)[C@H](Cc1ccc(OCc2c(Cl)cccc2Cl)cc1)NC(=O)[C@H]1CSCN1C(=O)OCCN1CCOCC1 [Example 91]
≥ 1000 | ≥ 750 | CCOC(=O)N1CSC[C@@H]1C(=O)N[C@@H](Cc1ccc(OCc2c(Cl)cccc2Cl)cc1)C(=O)NO [Example 92]
≥ 1000 | ≥ 750 | O=C(NO)[C@H](Cc1ccc(OCc2c(Cl)cccc2Cl)cc1)NC(=O)[C@H]1CSCN1C(=O)OCCN1CCCCC1 [Example 93]
≥ 1000 | ≥ 750 | COC(=O)[C@H](Cc1ccc(NC(=O)c2c(Cl)cccc2Cl)cc1)NC(=O)[C@@H]1CSCCN1C(=O)OC(C)(C)C [Example 96]
≥ 1000 | ≥ 750 | COC(=O)[C@H](Cc1ccc(NC(=O)c2c(Cl)cccc2Cl)cc1)NC(=O)[C@@H]1CSCCN1 [Example 97]
250 to 1000 | 50 to 750 | O=C(Nc1ccc(C[C@H](NC(=O)[C@@H]2CSCCN2)C(=O)O)cc1)c1c(Cl)cccc1Cl [Example 101, 4-[(2,6-Dichlorobenzoyl)amino]-N-[[(3R)-3-thiomorpholinyl]carbonyl]-L-phenylalanine Monohydrochloride]
≥ 1000 | ≥ 750 | COC(=O)[C@H](Cc1ccc(NC(=O)c2c(Cl)cccc2Cl)cc1)NC(=O)[C@@H]1CSCCN1C(=O)CCc1nnn[nH]1 [Example 102, 4-[(2,6-Dichlorobenzoyl)amino]-N-[[(3R)-4-[1-oxo-3-(1H-tetrazol-5-yl)propyl]-3-thiomorpholinyl]carbonyl]-L-phenylalanine Methyl Ester]
250 to 1000 | ≤ 50 | O=C(Nc1ccc(C[C@H](NC(=O)[C@@H]2CSCCN2C(=O)CCc2nnn[nH]2)C(=O)O)cc1)c1c(Cl)cccc1Cl [Example 103, 4-[(2,6-Dichlorobenzoyl)amino]-N-[[(3R)-4-[1-oxo-3-(1H-tetrazol-5-yl)propyl]-3-thiomorpholinyl]-carbonyl]-L-phenylalanine]
≥ 1000 | 50 to 750 | N#CCCC(=O)N1CCSC[C@H]1C(=O)N[C@@H](Cc1ccc(NC(=O)c2c(Cl)cccc2Cl)cc1)C(=O)O [Example 104, N-[[(3R)-4-(3-Cyano-1-oxopropyl)-3-thiomorpholinyl]carbonyl]-4-[[2,6-dichlorobenzoyl)amino]-L-phenylalanine]
≥ 1000 | 50 to 750 | CN1C(=O)CCC1(CCC(=O)O)CCC(=O)N[C@@H](Cc1ccc(OCc2c(Cl)cccc2Cl)cc1)C(=O)O (stereo partly drawn) [Example 107, 2-[3-[[(1S)-1-Carboxy-2-[4-[(2,6-dichlorophenyl)methoxy]phenyl]ethyl]amino]-3-oxo-propyl]-1-methyl-5-oxo-2-pyrrolidinepropanoic Acid]
≥ 1000 | ≥ 750 | CC(C)=CCN1C(=O)CCC1(CCC(=O)O)CCC(=O)N[C@@H](Cc1ccc(OCc2c(Cl)cccc2Cl)cc1)C(=O)O (stereo partly drawn) [Example 109, 2-[3-[[(1S)-1-Carboxy-2-[4-[(2,6-dichlorophenyl)methoxy]phenyl]ethyl]amino]-3-oxo-propyl]-1-(3-methyl-2-butenyl)-5-oxo-2-pyrrolidinepropanoic Acid]
250 to 1000 | 50 to 750 | CN1C(=O)CCC1(CCC(=O)O)CCC(=O)N[C@@H](Cc1ccc(NC(=O)c2c(Cl)cccc2Cl)cc1)C(=O)O (stereo partly drawn) [Example 111, 2-[3-[[(1S)-1-Carboxy-2-[4-[(2,6-dichlorobenzoyl)amino]phenyl]ethyl]amino]-3-oxo-propyl]-1-methyl-5-oxo-2-pyrrolidinepropanoic Acid]
≥ 1000 | 50 to 750 | O=C(O)CCC1(CCC(=O)N[C@@H](Cc2ccc(OCc3c(Cl)cccc3Cl)cc2)C(=O)O)CCC(=O)N1 (stereo partly drawn) [Example 113, 2-[3-[[(1S)-1-Carboxy-2-[4-[(2,6-dichlorophenyl)methoxy]phenyl]ethyl]amino]-3-oxo-propyl]-5-oxo-2-pyrrolidinepropanoic Acid]
≥ 1000 | ≥ 750 | COC(=O)CCC1(CCC(=O)N[C@@H](Cc2ccc(NC(=O)c3c(Cl)cccc3Cl)cc2)C(=O)OC)CCC(=O)N1 (stereo partly drawn) [Example 114, 2-[3-[[(1S)-1-[[4-[(2,6-Dichlorobenzoyl)amino]phenyl]methyl]-2-methoxy-2-oxoethyl]amino]-3-oxopropyl]-5-oxo-2-pyrrolidinepropanoic Acid Methyl Ester]
≥ 1000 | 50 to 750 | O=C(O)CCC1(CCC(=O)N[C@@H](Cc2ccc(NC(=O)c3c(Cl)cccc3Cl)cc2)C(=O)O)CCC(=O)N1 (stereo partly drawn) [Example 115]
≥ 1000 | ≥ 750 | COC(=O)[C@H](Cc1ccc(OCc2c(Cl)cccc2Cl)cc1)NC(=O)CCC1(C(=O)O)CCC(=O)N1 (stereo partly drawn) [Example 116, 2-[3-[[(1S)-1-[[4-[(2,6-Dichlorophenyl)methoxy]phenyl]methyl]-2-methoxy-2-oxoethyl]amino]-3-oxopropyl]-5-oxoproline]
≥ 1000 | 50 to 750 | O=C(CCC1(C(=O)O)CCC(=O)N1)N[C@@H](Cc1ccc(OCc2c(Cl)cccc2Cl)cc1)C(=O)O (stereo partly drawn) [Example 117, 2-[3-[[(1S)-1-Carboxy-2-[4-[(2,6-dichlorophenyl)methoxy]phenyl]ethyl]amino]-3-oxo-propyl]-5-oxoproline]
≥ 1000 | ≥ 750 | CC(C)(C)OC(=O)N1CSC[C@@H]1C(=O)N[C@@H](Cc1ccc(OCc2c(Cl)cccc2Cl)c(Cl)n1)C(=O)O [Example 119, [S-(R*,R*)]-4-[[1-Carboxy-2-[[2-Chloro-3-[(2,6-dichlorophenyl)methoxy]-6-pyridyl]ethyl]amino]carbonyl]-3-thiazolidinecarboxylic Acid (1,1-Dimethylethyl)ester]
≥ 1000 | ≥ 750 | CC(C)(C)OC(=O)N1CSC[C@@H]1C(=O)N[C@@H](Cc1ccc(N(C(=O)c2c(Cl)cccc2Cl)C(=O)c2c(Cl)cccc2Cl)nc1)C(=O)O [Example 123, [S-(R*,R*)]-4-[[[[1-Carboxy-2-[2-[[bis-(2,6-dichlorobenzoyl)]amino]-5-pyridyl]]ethyl]amino]carbonyl]-3-thiazolidinecarboxylic Acid (1,1-Dimethylethyl)ester]
≥ 1000 | ≥ 750 | COC(=O)[C@H](Cc1ccc(NC(=O)c2c(Cl)cccc2Cl)cc1)NC(=O)[C@@H]1COCN1C(=O)OCc1ccccc1 [Example 124, [S-(R*,R*)]-4-[[[1-[[4-[(2,6-Dichlorobenzoyl)amino]phenyl]methyl]-2-methoxy-2-oxoethyl]amino]carbonyl]-3-oxazolidinecarboxylic Acid 3-Phenylmethyl Ester]
250 to 1000 | 50 to 750 | O=C(Nc1ccc(C[C@H](NC(=O)[C@@H]2COCN2C(=O)OCc2ccccc2)C(=O)O)cc1)c1c(Cl)cccc1Cl [Example 125, [S-(R*,R*)]-4-[[[1-Carboxy-2-[4-[(2,6-dichlorobenzoyl)amino]phenyl]ethyl]amino]-carbonyl]-3-oxazolidinecarboxylic Acid 3-Phenylmethyl Ester]
≥ 1000 | ≥ 750 | COC(=O)[C@H](Cc1ccc(NC(=O)c2c(Cl)cccc2Cl)cc1)NC(=O)[C@H]1COCN1C(=O)OCc1ccccc1 [Example 126, [R-(R*S*)]-4-[[[1-[[4-[(2,6-Dichlorobenzoyl)amino]phenyl]methyl]-2-methoxy-2-oxoethyl]amino]carbonyl]-3-oxazolidinecarboxylic Acid 3-Phenylmethyl Ester]
≤ 250 | 50 to 750 | O=C(Nc1ccc(C[C@H](NC(=O)[C@H]2COCN2C(=O)OCc2ccccc2)C(=O)O)cc1)c1c(Cl)cccc1Cl [Example 127, [R-(R*,S*)]-4-[[[1-Carboxy-2-[4-[(2,6-dichlorobenzoyl)amino]phenyl]ethyl]amino]-carbonyl]-3-oxazolidinecarboxylic Acid 3-(Phenylmethyl)ester]
250 to 1000 | 50 to 750 | C[C@@H](c1ccccc1)N1[C@H](C(=O)O)C[C@H]1C(=O)N[C@@H](Cc1ccc(NC(=O)c2c(Cl)cccc2Cl)cc1)C(=O)O [Example 129, [2S-[1(R*),2α,4β(R*)]]-4-[[[1-Carboxy-2-[4-[(2,6-dichlorobenzoyl)amino]phenyl]ethyl]-amino]carbonyl]-1-(1-phenylethyl)-2-azetidinecarboxylic Acid Dilithium Salt]

SMILES | IC50 [1] [nM] | IC50 [2] [nM]
CC(C)(C)OC(=O)N1CSCC1C(=O)NC(Cc1ccc(OCc2c(Cl)cccc2Cl)cn1)C(=O)O (stereo not drawn) [Example 121, [S-(R*,R*)]-4-[[[1-Carboxy-2-[3-[(2,6-dihlorophenyl)methoxy]-6-pyridyl]ethyl]amino]carbonyl]-3-thiazolidinecarboxylic Acid (1,1-Dimethylethyl)ester] | ≥ 1000 | 50 to 750
